Laboratory results published in patent publication US20170121344A1 (Siga Technologies, Inc., priority 2009, published 2017).
Read-outs that look alike come from different tables or passages of the source.

Tested on: Dengue-2 (Strain New Guinea C)
Test: Viral yield assay against Dengue-2 in Vero cells
Type: cell-based, Dengue virus
Details: Dengue virus
How it was run: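 Vero cells were infected with dengue virus at an MOI of 0.1, treated with compound or DMSO vehicle, and kept at 37° C. Supernatant virus was harvested 48 hours post infection and titered on Vero cells, with EC50 derived from yield reduction.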

[1] = DENV2, viral yield assay, Vero cells, MOI 0.1, 48 hours post infection, read-out: Activity (EC50 in μM) DENV-2
[2] = Vero cells, MOI 0.1, harvested 48 hours post infection, read-out: Activity (EC50 class) against Dengue-2 Virus in Vero cells
[3] = DENV2, Vero, 48 h, read-out: Activity (EC50 in μM) DENV-2

In the case of `Nc1c(C(=O)Nc2cc(Cl)cc(Cl)c2)sc2nc(-c3ccc(F)cc3)ccc12` [Compound 622, 3-amino-N-(3,5-dichlorophenyl)-6-(4-fluorophenyl)thieno[2,3-b]pyridine-2-carboxamide], the EC50 [1] is reported as under 5 µM.
Work on `CC(=O)N1CCc2nc3sc(C(=O)Nc4ccc(C(C)(C)C)cc4)c(N)c3c(C(F)(F)F)c2C1` [Compound 56, 6-Acetyl-3-amino-4-trifluoromethyl-5,6,7,8-tetrahydro-thieno[2,3-b][1,6]naphthyridine-2-carboxylic acid (4-tert-butyl-phenyl)-amide] yielded an EC50 [2] of under 5 µM.
`COc1ccccc1C(C)N(C)C(=O)c1sc2nc(C)cc(C)c2c1C` (stereo not drawn) [Compound 409, N-[1-(2-methoxyphenyl)ethyl]-N,3,4,6-tetramethyl-thieno[2,3-b]pyridine-2-carboxamide] gave an EC50 [1] of over 25 µM.
In the case of `Nc1c(C(=O)NCCc2ccccc2)sc2nc3c(cc12)CCCCC3` [Compound 205, 3-Amino-6,7,8,9-tetrahydro-5H-1-thia-10-aza-cyclohepta[f]indene-2-carboxylic acid phenethyl-amide], the EC50 [2] is reported as over 25 µM.
With `COc1cccc(-c2ccc3c(N)c(C(=O)Nc4ccc(OC)c(OC)c4)sc3n2)c1` [Compound 508, 3-amino-N-(3,4-dimethoxyphenyl)-6-(3-methoxyphenyl)thieno[2,3-b]pyridine-2-carboxamide] the EC50 [3] was under 5 µM.
`Nc1c(C(=O)Nc2ccc(S(=O)(=O)O)cc2)sc2nc(-c3ccc(Cl)cc3)ccc12` [Compound 346, 4-[[3-amino-6-(4-chlorophenyl)thieno[2,3-b]pyridine-2-carbonyl]amino]benzenesulfonic acid] gave an EC50 [1] of under 5 µM.
In the case of `COc1ccc(-c2ccc3c(N)c(C(=O)NC(C)C)sc3n2)cc1` [Compound 101, 3-Amino-6-(4-methoxy-phenyl)-thieno[2,3-b]pyridine-2-carboxylic acid isopropylamide], the EC50 [2] is reported as 5 to 25 µM.
For `Cc1ccc2c(N)c(C(=O)Nc3ccccc3C(F)(F)F)sc2n1` [Compound 418, 3-amino-6-methyl-N-[2-(trifluoromethyl)phenyl]thieno[2,3-b] pyridine-2-carboxamide], the EC50 [3] was 5 to 25 µM.
`CC1(C)Cc2c(c(N3CCOCC3)nc3sc4c(c23)N2C(=O)CCC2(C)NC4=O)CO1` (stereo not drawn) [Compound 248, 2,2,9a-Trimethyl-5-(4-morpholinyl)-1,4,9,9a,10,11-hexahydro-2H-pyrano[4″,3″:4′,5′]pyrido[3′,2′:4, 5]thieno[2,3-e]pyrrolo[1,2-a]pyrimidine-8,12-dione] gave an EC50 [2] of over 25 µM.
Molecule `Cc1ccc(F)cc1NC(=O)c1sc2nc(-c3cccs3)ccc2c1N` [Compound 463, 3-amino-N-(5-fluoro-2-methyl-phenyl)-6-(2-thienyl)thieno [2,3-b]pyridine-2-carboxamide] has an EC50 [1] of under 5 µM.
Work on `CCOc1cccc(NC(=O)c2sc3nc(-c4ccc(F)cc4)ccc3c2N)c1` [Compound 611, 3-amino-N-(3-ethoxyphenyl)-6-(4-fluorophenyl)thieno[2,3-b]pyridine-2-carboxamide] yielded an EC50 [1] of under 5 µM.
Molecule `Cc1cc(C)c2c(C)c(C(=O)NC(C)C3CC3)sc2n1` (stereo not drawn) [Compound 394, N-(1-cyclopropylethyl)-3,4,6-trimethyl-thieno[2,3-b]pyridine-2-carboxamide] has an EC50 [1] of under 5 µM.
In the case of `COc1ccc(-c2cc(-c3ccc(F)cc3)nc3sc(C(N)=O)c(N)c23)cc1OC` [Compound 54, 3-Amino-4-(3,4-dimethoxy-phenyl)-6-(4-fluoro-phenyl)-thieno[2,3-b]pyridine-2-carboxylic acid amide], the EC50 [2] is reported as under 5 µM.
`Cc1ccc(NC(=O)c2sc3nc(-c4ccc5c(c4)OCO5)ccc3c2N)cc1C` [Compound 528, 3-amino-6-(1,3-benzodioxol-5-yl)-N-(3,4-dimethylphenyl)thieno[2,3-b]pyridine-2-carboxamide] showed an EC50 [1] of under 5 µM.
`Nc1c(C(=O)N2CCOCC2)sc2nc(-c3ccccc3)cc(C(F)(F)F)c12` [Compound 89, (3-Amino-6-phenyl-4-trifluoromethyl-thieno[2,3-b]pyridin-2-yl)-morpholin-4-yl-methanone] gave an EC50 [2] of 5 to 25 µM.
